SMILES strings stand for the structures.

Data set [1] deals with Sprague-Dawley male rats. The data set can be described thus: Thermal hyperalgesia (carrageenan, paw withdrawal latency). The settings on record: rat, 30 mg/kg, two hours after administration. The data set is classed as in vivo. On the procedure:
Sprague-Dawley male rats obtained from Charles River, San Diego, Calif. were purchased at 150-175 g, and held for at least one week before testing. Pain was induced by injecting 100 μl of 2% carrageenan in 0.9% saline sub-Q into the right ventral hindpaw while the animals were under isofluorane anesthesia. Animals were then dosed one hour after with a concentration of 30 mg/kg of Compound 1. Two hours later, after acclimatizing in testing chambers for 20-30 minutes, animals were tested on both hindpaws for latency of paw withdrawal using a thermal testing apparatus. 2-3 trials were conducted with 10 minutes between trials. […] The figure depicts the time in seconds until animals withdraw from thermal stimulation at baseline and two hours after administration of delivery vehicle, control compound, and the dose of 30 mg/kg of Compound 1.

The nature of data set [2]: Plasma protein binding by equilibrium dialysis, rat plasma. It counts as in vitro ADME. Particulars: pH 7.4, 37° C., read-out: plasma protein binding (% Bound). On the procedure:
(§1) Membranes from Harvard/Amika with a molecular weight cutoff of 5,000 were rinsed with dH2O then placed in pH 7.4 PBS supplied by Gibco. The membranes were allowed to soak for 1 hour. A stock of the test article was pooled with Warfarin, Atropine at 2 mM in DMSO. The test article was then dosed into human plasma in sodium citrate, Rat Plasma, and Mouse Plasma to a final 10 μM concentration (0.5% DMSO v/v).
(§2) The pre-soaked membranes were then placed into dialysis chambers. 500 μL of PBS was added to one side of the chamber, and 500 μL of the Matrix containing the test article was added to the other side of the chamber. The chambers were then placed into an enclosed, heated rocker, which was pre-warmed to 37° C. and allowed to reach equilibrium for at least 22 hours. After 22 hours both sides were sampled. 100 μL of the donor side was added to 500 μL of PBS. 100 μL of the PBS side was added to 20 μL of fresh matrix. Samples then were crashed with 1:1 Acetonitrile and centrifuged at 10,000 RPM for 10 minutes. […]
(§3) Standards were prepared in a 1:5 plasma:PBS mixture at 5, 1.5, 0.5, 0.15, 0.05, 0.015 and 0.005 μM concentrations. […] Protein binding values were calculated as follows: % Bound=[(Concentration in Donor−Concentration in Receiver)/(Concentration in Donor)]×100. % Recovery=[(Concentration in donor+Concentration in Receiver)]/(Concentration in Normal Initial)]×100

Data set [3] in a line: Plasma protein binding by equilibrium dialysis, human plasma. The data set is classed as in vitro ADME. Particulars: pH 7.4, 37° C., read-out: plasma protein binding (% Bound). As for the experimental part: as §1, §2, §3

As for `FC(F)(F)c1ccc(Nc2ncnc3c2CCN(c2ncccc2Cl)C3)cc1` [Compound 1], the “latency of paw withdrawal (reversal of thermal hyperalgesia)” value in data set [1] was “significantly increased latency of paw withdrawal”. Moreover, the fraction unbound at 22 h, 10 μM in data set [2] and in data set [3] was below 0.001 throughout.

For the origin of these results see patent publication US7312330B2, “Bicycloheteroarylamine compounds as ion channel ligands and uses thereof” (Renovis, Inc., priority 2003, dated 2007).
